# Assay results as given in PMC8037569, “Neuroprotective Effect of Aurantio-Obtusin, a Putative Vasopressin V1A Receptor Antagonist, on Transient Forebrain Ischemia Mice Model” (International Journal of Molecular Sciences, 2021).
# Like-named read-outs stand apart in the source and are kept apart here.
# Experiments:
# h5-HT1AR = molecular target: T1, h5-HT1AR (Homo sapiens, UniProt P08908); assay: GPCR functional assay: intracellular Ca2+ mobilization in Ba/F3 cells; assay type: cell-based; conditions: for % Inhibition (antagonist effect) of control agonist response, 5-HT1A (h) / % Stimulation (agonist effect) of control agonist response, 5-HT1A (h): 100 µM test compound; for % Inhibition (antagonist effect) of control agonist response, 5-HT1A (h): control response to 30 nM serotonin; for % Stimulation (agonist effect) of control agonist response, 5-HT1A (h): control response to serotonin (2.5 μM); for inhibition at 100 µM: BaF3, read-out: % Inhibition (antagonist effect) of control agonist response, 5-HT1A (h)
# T1 construct: host or cells: Ba/F3 (murine pro-B)
# T1 sequence (P08908 1-422): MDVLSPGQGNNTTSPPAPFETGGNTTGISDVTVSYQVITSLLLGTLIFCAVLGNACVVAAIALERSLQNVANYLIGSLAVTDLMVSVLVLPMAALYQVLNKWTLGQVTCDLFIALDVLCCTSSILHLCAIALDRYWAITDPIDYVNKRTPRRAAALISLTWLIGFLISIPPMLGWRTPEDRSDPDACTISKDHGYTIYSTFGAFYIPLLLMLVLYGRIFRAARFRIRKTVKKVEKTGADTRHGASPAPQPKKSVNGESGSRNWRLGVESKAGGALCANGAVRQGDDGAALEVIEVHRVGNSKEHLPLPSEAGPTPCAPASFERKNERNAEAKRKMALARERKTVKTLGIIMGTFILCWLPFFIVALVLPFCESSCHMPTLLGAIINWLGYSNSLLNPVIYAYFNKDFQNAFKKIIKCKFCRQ
# hNK1R = molecular target: T2, hNK1R (Homo sapiens, UniProt P25103); assay: GPCR functional assay: intracellular Ca2+ mobilization in U373MG cells; assay type: cell-based; conditions: for % Inhibition (antagonist effect) of control agonist response, NK1 (h) / % Stimulation (agonist effect) of control agonist response, NK1 (h): 100 µM test compound; for % Inhibition (antagonist effect) of control agonist response, NK1 (h): control response to 1 nM [Sar9, Met(O2)11]-SP; for % Stimulation (agonist effect) of control agonist response, NK1 (h): control response to 30 nM [Sar9, Met(O2)11]-SP; for inhibition at 100 µM: U373 MG, read-out: % Inhibition (antagonist effect) of control agonist response, NK1 (h)
# T2 construct: Human endogenous (U373MG cells); host or cells: U373MG
# T2 sequence (P25103 whole entry): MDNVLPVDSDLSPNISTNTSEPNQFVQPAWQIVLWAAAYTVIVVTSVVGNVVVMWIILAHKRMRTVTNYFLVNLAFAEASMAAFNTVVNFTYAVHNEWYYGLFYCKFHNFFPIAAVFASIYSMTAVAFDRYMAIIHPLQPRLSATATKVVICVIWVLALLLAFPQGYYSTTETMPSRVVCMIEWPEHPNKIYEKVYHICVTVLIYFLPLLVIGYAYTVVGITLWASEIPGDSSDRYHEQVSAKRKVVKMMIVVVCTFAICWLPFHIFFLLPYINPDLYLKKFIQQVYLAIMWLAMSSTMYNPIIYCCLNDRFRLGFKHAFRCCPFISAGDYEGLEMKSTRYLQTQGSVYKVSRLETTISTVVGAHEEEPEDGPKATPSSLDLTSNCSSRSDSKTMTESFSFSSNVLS
# hV1AR = molecular target: T3, hV1AR (Homo sapiens, UniProt P37288); assay: GPCR functional assay: intracellular Ca2+ mobilization in transfected CHO cells; assay type: cell-based; conditions: for % Stimulation (agonist effect) of control agonist response, V1A (h): control response to 1 μM AVP
# T3 construct: host or cells: CHO
# T3 sequence (P37288 whole entry): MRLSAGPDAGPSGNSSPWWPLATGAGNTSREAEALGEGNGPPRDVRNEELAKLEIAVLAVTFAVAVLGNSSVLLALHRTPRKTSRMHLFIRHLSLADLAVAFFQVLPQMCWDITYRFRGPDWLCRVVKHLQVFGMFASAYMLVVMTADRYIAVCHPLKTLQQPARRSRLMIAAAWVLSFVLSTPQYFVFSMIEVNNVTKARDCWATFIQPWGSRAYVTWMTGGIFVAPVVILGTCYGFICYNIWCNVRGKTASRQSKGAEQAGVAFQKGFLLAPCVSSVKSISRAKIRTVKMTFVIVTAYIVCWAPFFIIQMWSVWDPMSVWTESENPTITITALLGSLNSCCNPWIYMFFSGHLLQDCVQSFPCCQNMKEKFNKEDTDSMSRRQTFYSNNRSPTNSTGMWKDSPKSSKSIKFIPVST
# hD3 receptor = molecular target: T4, hD3 receptor (Homo sapiens, UniProt P35462); assay: GPCR functional assay: cAMP modulation by HTRF in transfected CHO cells; assay type: cell-based; conditions: for % Stimulation (agonist effect) of control agonist response, D3 (h): 100 µM test compound, control response to 300 nM dopamine; for inhibition at 100 µM: CHO, read-out: % Inhibition (antagonist effect) of control agonist response, D3 (h)
# T4 construct: host or cells: CHO
# T4 sequence (P35462 whole entry): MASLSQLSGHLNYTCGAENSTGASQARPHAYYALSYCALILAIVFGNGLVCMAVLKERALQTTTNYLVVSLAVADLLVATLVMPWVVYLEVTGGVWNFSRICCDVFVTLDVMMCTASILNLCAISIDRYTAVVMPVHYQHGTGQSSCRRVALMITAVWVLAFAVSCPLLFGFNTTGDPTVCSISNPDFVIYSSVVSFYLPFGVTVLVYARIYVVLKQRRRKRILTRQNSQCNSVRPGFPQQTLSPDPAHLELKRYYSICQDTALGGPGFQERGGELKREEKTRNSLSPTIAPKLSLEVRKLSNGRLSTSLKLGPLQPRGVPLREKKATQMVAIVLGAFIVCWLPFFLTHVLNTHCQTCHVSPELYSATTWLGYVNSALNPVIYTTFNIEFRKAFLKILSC
# vasopressin receptors = system: vasopressin receptors; parameters: method as in PMID 32280914; conditions: at the tested concentrations; cited from earlier work
# dopamine receptors = system: dopamine receptors; parameters: method as in PMID 32280914; conditions: at the tested concentrations; cited from earlier work
# [1] = molecular target: angiotensin-converting enzyme (ACE); parameters: method as in PMID 18803227; conditions: read-out: Inhibition of ACE activity, IC50; cited from earlier work
# [2] = 100 µM test compound, control response to 10 nM AVP
# [3] = CHO, read-out: % Inhibition (antagonist effect) of control agonist response, V1A (h)
smiles,measurement,setting,value
Cc1cc(=O)c2c(O)c3c(OC4OC(CO)C(O)C(O)C4O)cc(O)cc3cc2o1 (stereo not drawn) [Cassiaside],"% Inhibition (antagonist effect) of control agonist response, 5-HT1A (h)",h5-HT1AR,negligible
same,"% Stimulation (agonist effect) of control agonist response, 5-HT1A (h)",h5-HT1AR,1.75 ± 0.07%
same,inhibition at 100 µM,h5-HT1AR,-13.4%
same,"% Inhibition (antagonist effect) of control agonist response, NK1 (h)",hNK1R,negligible
same,"% Stimulation (agonist effect) of control agonist response, NK1 (h)",hNK1R,−1.70 ± 0.14%
same,inhibition at 100 µM,hNK1R,20.5%
same,"% Inhibition (antagonist effect) of control agonist response, V1A (h)",hV1AR; [2],negligible
same,"% Stimulation (agonist effect) of control agonist response, V1A (h)",hV1AR; 100 µM test compound,1.40 ± 2.83%
same,inhibition at 100 µM,hV1AR; [3],-9.9%
same,"% Stimulation (agonist effect) of control agonist response, D3 (h)",hD3 receptor,14.75 ± 1.20%
same,inhibition at 100 µM,hD3 receptor,-5.05%
O=C1c2cccc(O)c2C(=O)c2c(O)cc(CO)cc21 [aloe-emodin],Activity on vasopressin receptors,vasopressin receptors,remained inactive
same,Activity on dopamine receptors,dopamine receptors,remained inactive
"FC(F)(F)c1cc(CO[C@H]2CCCN[C@H]2c2ccccc2)cc(C(F)(F)F)c1 [L 733,060, reference compound]",IC50,"hNK1R; standard antagonist, read-out: Antagonist effect IC50, NK1 (h)",0.00058 µM
COc1c(O[C@@H]2O[C@H](CO)[C@@H](O)[C@H](O)[C@H]2O)cc2c(c1O)C(=O)c1c(cc(C)c(O)c1OC)C2=O [gluco-aurantio-obtusin],IC50,[1],30.24 ± 0.2 µM
COc1c(O)c(C)cc2c1C(=O)c1c(O)cc(O)cc1C2=O [2-Hydroxyemodin 1-methylether],inhibition at 12.5 µM,"hV1AR; CHO, 12.5 µM, control response to 10 nM AVP, read-out: V1AR antagonist effect, % inhibition",23.1%
same,inhibition at 25 µM,"hV1AR; CHO, 25 µM, control response to 10 nM AVP, read-out: V1AR antagonist effect, % inhibition",26.5%
same,inhibition at 50 µM,"hV1AR; CHO, 50 µM, control response to 10 nM AVP, read-out: V1AR antagonist effect, % inhibition",36.6%
same,inhibition at 100 µM,"hV1AR; CHO, 100 µM test compound, control response to 10 nM AVP, read-out: % Inhibition (antagonist effect) of control agonist response, V1A (h) (converted)",42.3%
"COc1cc(OC2OC(COC3OC(CO)C(O)C(O)C3O)C(O)C(O)C2O)c2c(O)c3c(=O)cc(C)oc3cc2c1 (stereo not drawn) [Rubrofusarin Gentiobioside, Rubrofusarin 6-O-β-gentiobioside]","% Inhibition (antagonist effect) of control agonist response, 5-HT1A (h)",h5-HT1AR,negligible
same,"% Stimulation (agonist effect) of control agonist response, 5-HT1A (h)",h5-HT1AR,−0.30 ± 0.28%
same,inhibition at 100 µM,h5-HT1AR,4.25%
same,"% Inhibition (antagonist effect) of control agonist response, NK1 (h)",hNK1R,negligible
same,"% Stimulation (agonist effect) of control agonist response, NK1 (h)",hNK1R,−1.40 ± 0.42%
same,inhibition at 100 µM,hNK1R,3.9%
same,"% Inhibition (antagonist effect) of control agonist response, V1A (h)",hV1AR; [2],negligible
same,"% Stimulation (agonist effect) of control agonist response, V1A (h)",hV1AR; 100 µM test compound,−4.40 ± 1.41%
same,inhibition at 100 µM,hV1AR; [3],-13.6%
same,"% Stimulation (agonist effect) of control agonist response, D3 (h)",hD3 receptor,7.05 ± 1.63%
same,inhibition at 100 µM,hD3 receptor,-0.05%
Cc1cc(O)c2c(c1)C(=O)c1cc(O)cc(O)c1C2=O [emodin],Activity on vasopressin receptors,vasopressin receptors,showed activity
same,Activity on dopamine receptors,dopamine receptors,showed activity
COc1cc(O)cc2c1C(=O)c1c(O)cc(C)cc1C2=O [questin],Activity on vasopressin receptors,vasopressin receptors,remained inactive
same,Activity on dopamine receptors,dopamine receptors,remained inactive
Cc1cc2c(c(O)c1O)C(=O)c1c(O)cc(O)cc1C2=O [7-hydroxyemodin],Activity on vasopressin receptors,vasopressin receptors,showed activity
same,Activity on dopamine receptors,dopamine receptors,showed activity
